“Also recorded” adds a separate entry of the source. Where two headings read alike, the source gives them in different places.
Legend:
[1] = target: SARS-CoV-2 Nucleocapsid protein N-terminal globular domain NTD (44–180) (Severe acute respiratory syndrome coronavirus 2, UniProt P0DTC9); assay type: binding
[2] = system: SARS-CoV-2 Nucleocapsid protein NTR (1–248) (NTD plus two flanking IDRs); assay type: binding; conditions: for peaks of poly-L region (216–225): 0.25 equiv. of the chimaera

In the case of “Ac‐Glu‐Gly‐Glu‐Gly‐Glu‐Gly‐Gly‐Glu‐gggg‐Glu‐Gly‐Gly‐Glu‐Gly‐Glu‐(β‐Ala)‐Glu [P-PNA]”, the “CSP magnitude, chimaera versus peptide P” value [1] is reported as “CSP for the same residues are more pronounced in the case of the chimaera adduct; also recorded: chemical shift perturbation values are clearly higher for the chimeric molecule”, the “affinity compared with gRNA fragments / oligonucleotides” value [1] is reported as “despite larger, is not significantly distant from those reported in the literature for studies conducted with gRNA fragments; also recorded: lower than that of some oligonucleotides of similar length” and the “affinity compared with the peptide / chimaera counterpart” value [1] is reported as “superior affinity over the pure peptide precursor; also recorded: higher affinity for an RNA‐binding protein, such as the nucleocapsid protein of SARS‐CoV‐2, compared to a pure designed peptide”. For the same substance, the “CSP pattern: location of most affected residues” value ([1]; pH 6.5) was “predominantly cluster within three main regions, as reported in Figure 2B and 2C, very similar to those identified when interacting with RNA”, the “exchange regime on the NMR time scale” value ([1]; pH 6.5) was “an interaction taking place in a fast exchange regime on the NMR time scale” and the “peaks of poly-L region (216–225)” value ([2]; 70 µM NTR1-248, pH 6.5, 298 K, listed as P‐PNA) was “several cross peaks disappearing at only 0.25 equiv. of ligand added”. The “peaks of poly-L region (216–225)” value ([2]; 70 µM NTR1-248, pH 6.5, 298 K, listed as chimaera) was “disappeared immediately after the addition of only 0.25 equiv. of the chimaera”, the “major CSPs on the NTD (44–180) region within NTR (1–248)” value ([2]; CSP at 1 equiv. P-PNA, 70 µM NTR1-248, pH 6.5, 298 K) was “identified once again in the basic finger of NTD (44–180)” and the “similarity of affected regions to those with RNA fragments” value ([2]; NTR (1–248), comparison with ref [22], [24]) was “the regions that are most affected by the interaction are similar to those identified when studying the interaction of NTR (1–248) with RNA fragments”. The “most perturbed residues, IDR2 (181–248) SR-rich region (177–203)” value ([2]; pH 6.5) was “the SR‐rich region, which shows the highest CSP values; also recorded: The most perturbed residues are found in the SR‐rich region (177–203” and the “intensity of NTD (44–180) peaks within NTR (1–248)” value ([2]; upon addition of the chimaera, 70 µM NTR1-248, pH 6.5, 298 K) was “several peaks of NTD (44–180) decrease in intensity or disappear completely”.
